Calls of active or inactive are those of the source. The rule behind the calls is not given here.
How the values were obtained:
HEK293 = assay: Cytotoxicity against HEK293 cells; type: functional, cell-based; details: Homo sapiens
[1] = Apparent permeability from apical to basolateral side in MDR-MDCK cells overexpressing human p-glycoprotein at 5 uM after 120 mins; type: ADME, cell-based; details: MDCK-MDR1
[2] = Apparent permeability from basolateral to apical side in MDR-MDCK cells overexpressing human p-glycoprotein at 5 uM after 120 mins; type: ADME, cell-based; details: MDCK-MDR1
[3] = Stability assessed as half life in PBS buffer; type: physicochemical
[4] = Stability assessed as half life in mouse plasma; type: ADME, cell-free
[5] = Stability in PBS assessed as percentage of remaining compound after 24 hrs; type: physicochemical; details: read-out: Activity
Tubulin (Homo sapiens) = Tubulin (Homo sapiens) (UniProt P68371+Q9H4B7+P0DPH7+P68366+Q13509+Q71U36+P04350+Q3ZCM7+P07437+P68363+Q9BQE3+Q6PEY2+Q13885+Q9BVA1+Q9BUF5); assay: Effect on tubulin polymerization by microtubule polymerization assay; type: protein-complex assay
MDCK = assay: (§1) Ratio of permeability from basolateral to apical over apical to basolateral side of the MDR-MDCK cells at 5 uM after 120 mins; type: ADME, cell-based; details: human, mdck, 2 h, 5 µM
[6] = as §1; type: ADME, cell-based; details: human, MDCK-MDR1
Homo sapiens = species on record: Homo sapiens; assay: Stability assessed as half life in human plasma

SMILES	IC50 (HEK293)	Papp A→B at 2 h, 5 µM [1]	Papp B→A at 2 h, 5 µM [2]	half-life [3]	half-life [4]	remaining at 24 h [5]	Activity (Tubulin (Homo sapiens))	Ratio (MDCK)	efflux ratio at 2 h, 5 µM [6]	half-life (Homo sapiens)
CC(=O)O[C@@]12CO[C@@H]1C[C@H](O)[C@@]1(C)C(=O)[C@H](OC(=O)N[C@@H](C)C(=O)O)C3=C(C)[C@@H](OC(=O)[C@H](O)[C@@H](NC(=O)c4ccccc4)c4ccccc4)C[C@@](O)([C@@H](OC(=O)c4ccccc4)[C@H]21)C3(C)C	3900 nM	< 0.06 ×10⁻⁶ cm/s	< 0.06 ×10⁻⁶ cm/s	–	–	–	–	–	–	–
CC(=O)O[C@H]1C(=O)[C@@]2(C)[C@H]([C@H](OC(=O)c3ccccc3)[C@]3(O)C[C@H](OC(=O)[C@H](O)[C@@H](NC(=O)c4ccccc4)c4ccccc4)C(C)=C1C3(C)C)[C@]1(OC(C)=O)CO[C@@H]1C[C@@H]2O [PACLITAXEL]	10 nM	0.2 ×10⁻⁶ cm/s	28.5 ×10⁻⁶ cm/s	> 60 h	30.1 h	85.2%	inactive	–	–	–
CC(=O)O[C@@]12CO[C@@H]1C[C@H](O)[C@@]1(C)C(=O)[C@H](OC(=O)N(C)C(C)(C)C(=O)O)C3=C(C)[C@@H](OC(=O)[C@H](O)[C@@H](NC(=O)c4ccccc4)c4ccccc4)C[C@@](O)([C@@H](OC(=O)c4ccccc4)[C@H]21)C3(C)C	1000 nM	0.05 ×10⁻⁶ cm/s	0.05 ×10⁻⁶ cm/s	–	–	–	–	1	–	–
CC(=O)O[C@@]12CO[C@@H]1C[C@H](O)[C@@]1(C)C(=O)[C@H](OC(=O)N[C@H]3CCOC3=O)C3=C(C)[C@@H](OC(=O)[C@H](O)[C@@H](NC(=O)c4ccccc4)c4ccccc4)C[C@@](O)([C@@H](OC(=O)c4ccccc4)[C@H]21)C3(C)C	1900 nM	< 0.07 ×10⁻⁶ cm/s	0.21 ×10⁻⁶ cm/s	–	–	–	–	> 3	–	–
CC(=O)O[C@@]12CO[C@@H]1C[C@H](O)[C@@]1(C)C(=O)[C@H](OC(=O)NCC(=O)O)C3=C(C)[C@@H](OC(=O)[C@H](O)[C@@H](NC(=O)c4ccccc4)c4ccccc4)C[C@@](O)([C@@H](OC(=O)c4ccccc4)[C@H]21)C3(C)C	8300 nM	0.09 ×10⁻⁶ cm/s	0.05 ×10⁻⁶ cm/s	> 60 h	31.3 h	91.6%	–	–	0.6	52 h
CC(=O)O[C@@]12CO[C@@H]1C[C@H](O)[C@@]1(C)C(=O)[C@H](OC(=O)CCC(=O)O)C3=C(C)[C@@H](OC(=O)[C@H](O)[C@@H](NC(=O)c4ccccc4)c4ccccc4)C[C@@](O)([C@@H](OC(=O)c4ccccc4)[C@H]21)C3(C)C	4700 nM	0.08 ×10⁻⁶ cm/s	0.1 ×10⁻⁶ cm/s	> 60 h	19.5 h	75.1%	–	1.3	–	15.3 h
CC(=O)O[C@@]12CO[C@@H]1C[C@H](O)[C@@]1(C)C(=O)[C@H](OC(=O)NCC(=O)O)C3=C(C)[C@@H](OC(=O)[C@H](O)[C@@H](NC(=O)OC(C)(C)C)c4ccccc4)C[C@@](O)([C@@H](OC(=O)c4ccccc4)[C@H]21)C3(C)C	1700 nM	< 0.2 ×10⁻⁶ cm/s	< 0.2 ×10⁻⁶ cm/s	–	–	–	–	–	–	–
CC(=O)O[C@H]1C(=O)[C@]2(C)[C@@H](OC(=O)NCC(=O)O)C[C@H]3OC[C@@]3(OC(C)=O)[C@H]2[C@H](OC(=O)c2ccccc2)[C@]2(O)C[C@H](OC(=O)[C@H](O)[C@@H](NC(=O)c3ccccc3)c3ccccc3)C(C)=C1C2(C)C	> 25000 nM	0.07 ×10⁻⁶ cm/s	0.06 ×10⁻⁶ cm/s	–	–	–	–	0.9	–	–
CC(=O)O[C@@]12CO[C@@H]1C[C@H](O)[C@@]1(C)C(=O)[C@H](OC(=O)NCCO)C3=C(C)[C@@H](OC(=O)[C@H](O)[C@@H](NC(=O)c4ccccc4)c4ccccc4)C[C@@](O)([C@@H](OC(=O)c4ccccc4)[C@H]21)C3(C)C	700 nM	< 0.21 ×10⁻⁶ cm/s	< 0.21 ×10⁻⁶ cm/s	–	–	–	–	–	–	–
CC(=O)O[C@@]12CO[C@@H]1C[C@H](O)[C@@]1(C)C(=O)[C@H](OC(=O)N3CCOCC3)C3=C(C)[C@@H](OC(=O)[C@H](O)[C@@H](NC(=O)c4ccccc4)c4ccccc4)C[C@@](O)([C@@H](OC(=O)c4ccccc4)[C@H]21)C3(C)C	–	0.17 ×10⁻⁶ cm/s	22.6 ×10⁻⁶ cm/s	–	–	–	–	–	133	–
CC(=O)O[C@@]12CO[C@@H]1C[C@H](O)[C@@]1(C)C(=O)[C@H](O)C3=C(C)[C@@H](OC(=O)[C@H](O)[C@@H](NC(=O)c4ccccc4)c4ccccc4)C[C@@](O)([C@@H](OC(=O)c4ccccc4)[C@H]21)C3(C)C	76 nM	0.13 ×10⁻⁶ cm/s	5.17 ×10⁻⁶ cm/s	–	–	–	–	–	39	–
CC(=O)O[C@@]12CO[C@@H]1C[C@H](O)[C@@]1(C)C(=O)[C@H](OC(=O)NCC(=O)N(C)C)C3=C(C)[C@@H](OC(=O)[C@H](O)[C@@H](NC(=O)c4ccccc4)c4ccccc4)C[C@@](O)([C@@H](OC(=O)c4ccccc4)[C@H]21)C3(C)C	1000 nM	0.09 ×10⁻⁶ cm/s	0.8 ×10⁻⁶ cm/s	–	–	–	–	–	8.8	–
CC(=O)O[C@@]12CO[C@@H]1C[C@H](O)[C@@]1(C)C(=O)[C@H](O)C3=C(C)[C@@H](OC(=O)[C@H](O)[C@@H](NC(=O)OC(C)(C)C)c4ccccc4)C[C@@](O)([C@@H](OC(=O)c4ccccc4)[C@H]21)C3(C)C.O.O.O [DOCETAXEL]	27 nM	< 0.62 ×10⁻⁶ cm/s	15.5 ×10⁻⁶ cm/s	–	–	–	inactive	> 25	–	–
CC(=O)O[C@@]12CO[C@@H]1C[C@H](O)[C@@]1(C)C(=O)[C@H](OC(=O)N(C)CC(=O)O)C3=C(C)[C@@H](OC(=O)[C@H](O)[C@@H](NC(=O)c4ccccc4)c4ccccc4)C[C@@](O)([C@@H](OC(=O)c4ccccc4)[C@H]21)C3(C)C	1800 nM	0.06 ×10⁻⁶ cm/s	0.05 ×10⁻⁶ cm/s	–	–	–	–	0.9	–	–
CC(=O)O[C@@]12CO[C@@H]1C[C@H](O)[C@@]1(C)C(=O)[C@H](OC(=O)NCCC(=O)O)C3=C(C)[C@@H](OC(=O)[C@H](O)[C@@H](NC(=O)c4ccccc4)c4ccccc4)C[C@@](O)([C@@H](OC(=O)c4ccccc4)[C@H]21)C3(C)C	7400 nM	< 0.64 ×10⁻⁶ cm/s	< 0.64 ×10⁻⁶ cm/s	–	–	–	–	–	–	–
CC(=O)O[C@@]12CO[C@@H]1C[C@H](O)[C@@]1(C)C(=O)[C@H](OC(=O)N(C)[C@H](C)[C@H](O)c3ccccc3)C3=C(C)[C@@H](OC(=O)[C@H](O)[C@@H](NC(=O)c4ccccc4)c4ccccc4)C[C@@](O)([C@@H](OC(=O)c4ccccc4)[C@H]21)C3(C)C	24 nM	< 0.2 ×10⁻⁶ cm/s	25.3 ×10⁻⁶ cm/s	–	–	–	–	> 127	–	–
COC(=O)CNC(=O)O[C@H]1C(=O)[C@@]2(C)[C@H]([C@H](OC(=O)c3ccccc3)[C@]3(O)C[C@H](OC(=O)[C@H](O)[C@@H](NC(=O)c4ccccc4)c4ccccc4)C(C)=C1C3(C)C)[C@]1(OC(C)=O)CO[C@@H]1C[C@@H]2O	60 nM	< 0.62 ×10⁻⁶ cm/s	3.36 ×10⁻⁶ cm/s	–	–	–	–	> 5.4	–	–
CC(=O)O[C@@]12CO[C@@H]1C[C@H](O)[C@@]1(C)C(=O)[C@H](OC(=O)N[C@H](C)C(=O)O)C3=C(C)[C@@H](OC(=O)[C@H](O)[C@@H](NC(=O)c4ccccc4)c4ccccc4)C[C@@](O)([C@@H](OC(=O)c4ccccc4)[C@H]21)C3(C)C	2500 nM	< 0.63 ×10⁻⁶ cm/s	< 0.63 ×10⁻⁶ cm/s	–	–	–	–	–	–	–

— ChEMBL document CHEMBL1148876 (Bioorg Med Chem Lett, 2007)
